Measurements reported in patent publication US8686150B2 (Sanofi, priority 2011, dated 2014).

target: T1, human full-length recombinant PKC βII (Homo sapiens, UniProt P05771); test: Determination of PKC βII inhibition (Caliper mobility-shift kinase assay, Fluorescein-RFARKGSLRQKNV peptide substrate); assay type: biochemical; conditions: example compounds at a final concentration of 1.14 μM (±0.15 μM)
T1 construct: Active human full-length recombinant PKC βII; purchased Invitrogen GmbH, Darmstadt, Germany
Method in brief: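 Compounds were tested at 1.14 μM final. Enzyme was activated by PS, DAG and CaCl2 in Hepes pH 7.4 with MgCl2, with substrate 3 μM and ATP 120 μM as pre-mix concentrations. After 60 min at 32 °C and an EDTA stop, Caliper separation gave fractional turnover, which was normalised to no-compound and no-enzyme controls.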

T1 sequence (P05771 1-673 isoform P05771-2): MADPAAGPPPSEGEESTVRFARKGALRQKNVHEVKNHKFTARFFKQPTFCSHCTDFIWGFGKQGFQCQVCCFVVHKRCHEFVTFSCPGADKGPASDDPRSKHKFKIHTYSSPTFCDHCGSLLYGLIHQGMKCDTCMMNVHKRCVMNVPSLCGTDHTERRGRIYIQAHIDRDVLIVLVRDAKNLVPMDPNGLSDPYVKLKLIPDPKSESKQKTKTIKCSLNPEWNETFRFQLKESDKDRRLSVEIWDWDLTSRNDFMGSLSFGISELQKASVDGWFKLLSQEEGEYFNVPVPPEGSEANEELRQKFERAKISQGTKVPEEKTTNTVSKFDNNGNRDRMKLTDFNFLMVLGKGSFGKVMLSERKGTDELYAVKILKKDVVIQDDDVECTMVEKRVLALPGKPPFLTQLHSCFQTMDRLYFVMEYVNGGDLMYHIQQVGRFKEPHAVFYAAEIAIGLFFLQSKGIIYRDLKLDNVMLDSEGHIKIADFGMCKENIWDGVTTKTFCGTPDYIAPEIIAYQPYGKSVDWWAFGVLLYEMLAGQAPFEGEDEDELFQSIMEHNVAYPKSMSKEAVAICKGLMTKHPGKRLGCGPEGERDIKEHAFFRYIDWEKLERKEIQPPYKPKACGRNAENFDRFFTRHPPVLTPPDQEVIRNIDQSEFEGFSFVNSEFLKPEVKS

SMILES	inhibition at 1.14 µM [%]
Cc1n[nH]c2nc(-c3ccc(O)cc3)cc(C(=O)N3CCNCC3(C)c3ccccc3)c12 (stereo not shown) [Example 1, [6-(4-Hydroxy-phenyl)-3-methyl-1H-pyrazolo[3,4-b]pyridin-4-yl]-(2-methyl-2-phenyl-piperazin-1-yl)-methanone]	98
Cc1n[nH]c2nc(-c3ccc(O)cc3)cc(C(=O)N3CCNCC3c3ccc(Cl)c(Cl)c3)c12 (stereo not shown) [Example 29, [2-(3,4-Dichloro-phenyl)-piperazin-1-yl]-[6-(4-hydroxy-phenyl)-3-methyl-1H-pyrazolo[3,4-b]pyridin-4-yl]-methanone]	99
Cc1n[nH]c2nc(-c3ccc(O)cc3)cc(C(=O)N3CCNCC34CCCC4)c12 [Example 108, (6,9-Diaza-spiro[4.5]dec-6-yl)-[6-(4-hydroxy-phenyl)-3-methyl-1H-pyrazolo[3,4-b]pyridin-4-yl]-methanone]	96

Further lines, results first:

inhibition at 1.14 µM [%]	SMILES
59	Cc1n[nH]c2nc(-c3ccc(O)c(F)c3)cc(C(=O)N3CCCC4(CCNC4)C3)c12 (stereo not shown) [Example 346, (2,7-Diaza-spiro[4.5]dec-7-yl)-[6-(3-fluoro-4-hydroxy-phenyl)-3-methyl-1H-pyrazolo[3,4-b]pyridin-4-yl]-methanone]
76	Cc1n[nH]c2nc(-c3ccc(O)cc3)cc(C(=O)NCC3(N)CCCCCC3)c12 [Example 116, 6-(4-Hydroxy-phenyl)-3-methyl-1H-pyrazolo[3,4-b]pyridine-4-carboxylic acid (1-amino-cycloheptylmethyl)-amide]
52	CCCC1(NC(=O)c2cc(-c3ccc(O)cc3)nc3[nH]nc(C)c23)CCNC1 (stereo not shown) [Example 125, 6-(4-Hydroxy-phenyl)-3-methyl-1H-pyrazolo[3,4-b]pyridine-4-carboxylic acid (3-propyl-pyrrolidin-3-yl)-amide]
80	CCC[C@@H]1CN(C(=O)c2cc(-c3ccc(O)cc3F)nc3[nH]nc(C)c23)CCN1 [Example 420, [6-(2-Fluoro-4-hydroxy-phenyl)-3-methyl-1H-pyrazolo[3,4-b]pyridin-4-yl]-((R)-3-propyl-piperazin-1-yl)-methanone]
